From patent US9743665B2, “Fungicidal 3-{phenyl[heterocyclylmethoxy)imino]methyl}-oxadiazolone derivatives” (BAYER CROPSCIENCE AKTIENGESELLSCHAFT, priority 2013, dated 2017)
Marks after values point to notes of the source that are not given here.

Legend:
Phytophthora infestans = format: in vivo; conditions: tomato plants, preventive spray, 500 ppm of active ingredient, evaluated 5 days after inoculation
[1] = pH 2.7
Experimental: Measurement of IogP values was performed according EEC directive 79/831 Annex V.A8 by HPLC (High Performance Liquid Chromatography) on reversed phase columns with the following methods:
Measurement of LC-MS was done at pH 2.7 with 0.1% formic acid in water and with acetonitrile (contains 0.1% formic acid) as eluent with a linear gradient from 10% acetonitrile to 95% acetonitrile.
Calibration was done with not branched alkan2-ones (with 3 to 16 carbon atoms) with known logP-values (measurement of logP values using retention times with linear interpolation between successive alkanones). lambda-maX-values were determined using UV-spectra from 200 nm to 400 nm and the peak values of the chromatographic signals.

Compound	% efficacy (Phytophthora infestans)	LogP [1]
Cn1c(/C(=N\OCc2nc(C#CC3CCCCC3)cs2)c2ccccc2)noc1=O [Example 31]	94%	4.80^[a]
Cn1oc(=O)nc1/C(=N\OCc1nc(C(=O)NC(C)(C)C)cs1)c1ccccc1 [Example 43]	–	2.61^[a]
NC(=NO)C(=NOCc1nc(Br)cs1)c1ccccc1 [Example V-2]	–	1.86^[a]
CCCCC#Cc1csc(CO/N=C(/c2ccccc2)c2noc(=O)n2C)n1 [Example 21]	100%	4.26^[a]
CCCC#Cc1csc(CO/N=C(/c2ccccc2)c2noc(=O)[nH]2)n1 [Example 26]	–	3.47^[a]
COC(=O)c1csc(CON=C(C#N)c2ccccc2)n1 [Example IV-2]	–	2.80^[a]
Cn1c(/C(=N\OCc2nc(/C=C/Cc3ccccc3)cs2)c2ccccc2)noc1=O [Example 41]	–	4.39^[a]
Cn1c(/C(=N\OCc2nc(C#CCCc3ccccc3)cs2)c2ccccc2)noc1=O [Example 12]	100%	4.30^[a]
CCCCC#Cc1csc(CON=C(C(N)=NO)c2ccccc2)n1 [Example V-4]	–	2.98^[a]
CCCC(C)C(=O)Nc1csc(CO/N=C(/c2ccccc2)c2noc(=O)n2C)n1 (centres unmarked) [Example 36]	99%	3.45^[a]
CCCC#Cc1csc(CON=C(C(N)=NO)c2ccccc2)n1 [Example V-3]	–	2.59^[a]
N#CC(=NOCn1ccc(N)n1)c1ccccc1 [Example IV-4]	–	1.86^[a]
Cn1c(/C(=N\OCc2nc(NC(=O)C(C)(C)C)cs2)c2ccccc2)noc1=O [Example 11]	100%	3.23^[a]
CCCCCC#Cc1csc(CON=C(C(N)=NO)c2ccccc2)n1 [Example V-6]	–	3.37^[a]
C=CCOC(=O)Nc1csc(CO/N=C(/c2ccccc2)c2noc(=O)n2C)n1 [Example 42]	–	3.02^[a]
CCCCC#Cc1csc(CON=C(C#N)c2ccccc2)n1 [Example IV-7]	–	4.83^[a]

Compound	% efficacy (Phytophthora infestans)	LogP [1]
Cn1c(/C(=N\OCc2nc(C(=O)NC3CCCCC3)cs2)c2ccccc2)noc1=O [Example 9]	79%	3.43^[a]
NC(=NO)C(=NOCn1ccc(N)n1)c1ccccc1 [Example V-1]	–	0.65^[a]
Cn1c(/C(=N\OCc2nc(C#CCc3ccccc3)cs2)c2ccccc2)noc1=O [Example 39]	88%	4.07^[a]
CCCC/C=C/c1csc(CO/N=C(/c2ccccc2)c2noc(=O)n2C)n1 [Example 24]	98%	4.77^[a]
Cn1c(/C(=N\OCc2nc(NC(=O)COc3ccccc3)cs2)c2ccccc2)noc1=O [Example 28]	73%	3.30^[a]
N#CC(=NOCc1nc(C#CCCCc2ccccc2)cs1)c1ccccc1 [Example IV-5]	–	5.19^[a]
Cn1c(/C(=N\OCc2nc(NC(=O)COCc3ccccc3)cs2)c2ccccc2)noc1=O [Example 35]	93%	3.45^[a]
CCCCC#Cc1csc(CO/N=C(/c2ccccc2)c2noc(=O)[nH]2)n1 [Example 25]	–	3.39^[a]
CCCC#Cc1csc(CON=C(C#N)c2ccccc2)n1 [Example IV-6]	–	4.41^[a]
CCCCCC#Cc1csc(CON=C(C#N)c2ccccc2)n1 [Example IV-10]	–	5.27^[a]
C#CCCOC(=O)Nc1csc(CO/N=C(/c2ccccc2)c2noc(=O)n2C)n1 [Example 1]	98%	2.97^[a]
CCCCC/C=C/c1csc(CO/N=C(/c2ccccc2)c2noc(=O)n2C)n1 [Example 30]	97%	5.23^[a]
NC(=NO)C(=NOCc1nc(C#CC2CCCCC2)cs1)c1ccccc1 [Example V-5]	–	3.42^[a]
N#CC(=NOCc1nc(C#CC2CCCCC2)cs1)c1ccccc1 [Example IV-9]	–	5.42^[a]
N#CC(=NOCc1nc(C#CC2CC2)cs1)c1ccccc1 [Example IV-8]	–	4.04^[a]
O=c1[nH]c(/C(=N\OCc2nc(C#CC3CCCCC3)cs2)c2ccccc2)no1 [Example 32]	–	4.33^[a]
